23 compounds from patent US10913745B2, “Octahydro-pyrrolo[3,4-c]-pyrrole derivatives and analogs thereof as autotaxin inhibitors” (Hoffmann-La Roche Inc., priority 2013, dated 2021) can be followed below.

The assay addresses ATX (human His-tagged) (Homo sapiens (Human), UniProt Q13822). Kind of assay: Human ATX enzyme inhibition assay (fluorescence quenching, MR121 substrate). The format is biochemical. Conditions: MR121 substrate 1 μM, ATX 30 nM final, 30° C. The protocol:
Human ATX Enzyme Inhibition Assay
ATX inhibition was measured by a fluorescence quenching assay using a specifically labeled substrate analogue (MR121 substrate). To obtain this MR121 substrate, BOC and TBS protected 6-amino-hexanoic acid (R)-3-({2-[3-(2-{2-[2-(2-amino-ethoxy)-ethoxy]-ethoxy}-ethoxy)-propionylamino]-ethoxy}-hydroxy-phosphoryloxy)-2-hydroxy-propyl ester (Ferguson et al., Org Lett 2006, 8 (10), 2023) was labeled with MR121 fluorophore (CAS 185308-24-1, 1-(3-carboxypropyl)-11-ethyl-1,2,3,4,8,9,10,11-octahydro-dipyrido[3,2-b:2′,3′-i]phenoxazin-13-ium) on the free amine of the ethanolamine side and then, after deprotection, subsequently with tryptophan on the side of the aminohexanoic acid. Assay working solutions were made as follows: Assay buffer (50 mM Tris-HCl, 140 mM NaCl, 5 mM KCl, 1 mM CaCl2, 1 mM MgCl2, 0.01% Triton-X-100, pH 8.0; ATX solution: ATX (human His-tagged) stock solution (1.08 mg/mL in 20 mM bicine, pH 8.5, 0.15 M NaCl, 10% glycerol, 0.3% CHAPS, 0.02% NaN3), diluted to 1.4-2.5× final concentration in assay buffer; MR121 substrate solution: MR121 substrate stock solution (800 μM MR121 substrate in DMSO), diluted to 2-5× final concentration in assay buffer. Test compounds (10 mM stock in DMSO, 8 μL) were obtained in 384 well sample plates (Corning Costar #3655) and diluted with 8 μL DMSO. Row-wise serial dilutions were made by transferring 8 μL cpd solution to the next row up to row O. The compound and control solutions were mixed five times and 2 μL were transferred to 384 well assay plates (Corning Costar #3702). Then, 15 μL of 41.7 nM ATX solution was added (30 nM final concentration), mixed five times and then incubated for 15 minutes at 30° C. 10 μL of MR121 substrate solution was added (1 μM final concentration), mixed 30 times and then incubated for 15 minutes at 30° C.
One may read the IC50 as the point on the concentration scale where inhibition reaches its midpoint. On to `NS(=O)(=O)c1ccc(C(=O)N2C[C@H]3CN(C(=O)CCc4ccc(OC(F)(F)F)cc4)C[C@@H]3C2)cn1` [Example 1.20, 5-{(3 aR,6aR)-5-[3-(4-trifluoromethoxy-phenyl)-propionyl]-hexahydro-pyrrolo[3,4-c]pyrrole-2-carbonyl}-pyridine-2-sulfonic acid amide], for which the 50% inhibitory concentration (IC50) was found to be 19 nM.

`CCOc1cc(C(=O)N2C[C@@H]3CN(C(=O)c4ccc(S(N)(=O)=O)nc4)C[C@H]3C2)nc2ccccc12` [Example 1.21, 5-((3 aS,6aS)-5-(4-ethoxyquinoline-2-carbonyl)octahydropyrrolo[3,4-c]pyrrole-2-carbonyl)pyridine-2-sulfonamide]: the IC50 stood at 118 nM.

The compound `CC(C)(C)C(=O)Nc1cc(C#N)ccc1COC(=O)N1C[C@@H]2CN(C(=O)c3ccc(S(N)(=O)=O)c(F)c3)C[C@H]2C1` [Example 1.22, (3aS,6aS)-5-(3-fluoro-4-sulfamoyl-benzoyl)-hexahydro-pyrrolo[3,4-c]pyrrole-2-carboxylic acid 4-cyano-2-(2,2-dimethyl-propionylamino)-benzyl ester] had an IC50 of 7 nM. As for `CC(C)(C)C(=O)Nc1cc(C#N)ccc1COC(=O)N1C[C@@H]2CN(C(=O)c3ccc(S(N)(=O)=O)nc3)C[C@H]2C1` [Example 1.23, (3aS,6aS)-5-(6-sulfamoyl-pyridine-3-carbonyl)-hexahydro-pyrrolo[3,4-c]pyrrole-2-carboxylic acid 4-cyano-2-(2,2-dimethyl-propionylamino)-benzyl ester], the figure is 4 nM; as for `CC(C)(C)C(=O)Nc1cc(C#N)ccc1COC(=O)N1C[C@@H]2CN(C(=O)c3ccc(S(N)(=O)=O)cc3)C[C@H]2C1` [Example 1.24, (3aS,6aS)-5-(4-sulfamoyl-benzoyl)-hexahydro-pyrrolo[3,4-c]pyrrole-2-carboxylic acid 4-cyano-2-(2,2-dimethyl-propionylamino)-benzylester], 12 nM; as for `CC(C)(C)C(=O)Nc1cc(C#N)ccc1COC(=O)N1C[C@@H]2CN(C(=O)c3ccc(S(N)(=O)=O)cc3F)C[C@H]2C1` [Example 1.25, (3aS,6aS)-5-(2-fluoro-4-sulfamoyl-benzoyl)-hexahydro-pyrrolo[3,4-c]pyrrole-2-carboxylic acid 4-cyano-2-(2,2-dimethyl-propionylamino)-benzyl ester], 2 nM. In turn, `CC(C)(C)C(=O)Nc1cc(C#N)ccc1COC(=O)N1C[C@@H]2CN(C(=O)c3ccc(S(N)(=O)=O)cn3)C[C@H]2C1` [Example 1.26, (3aS,6aS)-5-(5-sulfamoyl-pyridine-2-carbonyl)-hexahydro-pyrrolo[3,4-c]pyrrole-2-carboxylic acid 4-cyano-2-(2,2-dimethyl-propionylamino)-benzyl ester] showed a half-inhibitory concentration (IC50) of 10 nM. The figure for `CC(=O)Nc1ccc(C(=O)N2C[C@H]3CN(C(=O)OCc4cc(Cl)cc(Cl)c4)C[C@H]3C2)cc1` [Example 2, (3aR,6aS)-3,5-Dichlorobenzyl 5-(4-acetamidobenzoyl)hexahydropyrrolo[3,4-c]pyrrole-2(1H)-carboxylate] is 342 nM. `CC(=O)Nc1ccc(C(=O)N2C[C@H]3CN(C(=O)OCc4cc(Cl)cc(Cl)c4)C[C@H]3C2)nc1` [Example 2.01, (3aR,6aS)-3,5-Dichlorobenzyl 5-(5-acetamidopicolinoyl)hexahydropyrrolo[3,4-c]pyrrole-2(1H)-carboxylate] displayed a half-maximal inhibitory concentration (IC50) of 1500 nM.

Take `NS(=O)(=O)c1ccc(S(=O)(=O)N2C[C@H]3CN(C(=O)OCc4cc(Cl)cc(Cl)c4)C[C@H]3C2)cc1` [Example 3, (3aR,6aS)-3,5-Dichlorobenzyl 5-(4-sulfamoylphenylsulfonyl)hexahydropyrrolo[3,4-c]pyrrole-2(1H)-carboxylate]: 31 nM corresponded to half-maximal inhibition (IC50). Regarding `O=C(OCc1cc(Cl)cc(Cl)c1)N1C[C@@H]2CN(C(=O)c3ccc(-c4nnn[nH]4)cc3)C[C@@H]2C1` [Example 4, (3aR,6aS)-3,5-Dichlorobenzyl 5-(4-(1H-tetrazol-5-yl)benzoyl)hexahydropyrrolo[3,4-c]pyrrole-2(1H)-carboxylate], the midpoint of inhibition, the IC50, lay at 573 nM.

Compound `O=C(O)c1ccc(C(=O)N2C[C@H]3CN(C(=O)OCc4cc(Cl)cc(Cl)c4)C[C@H]3C2)cc1` [Example 5, 4-((3aR,6aS)-5-((3,5-Dichlorobenzyloxy)carbonyl)octahydropyrrolo[3,4-c]pyrrole-2-carbonyl)benzoic acid] came in with an IC50 of 1340 nM.

Regarding `CS(=O)(=O)Nc1ccc(C(=O)N2C[C@H]3CN(C(=O)OCc4cc(Cl)cc(Cl)c4)C[C@H]3C2)nc1` [Example 6, (3aR,6aS)-3,5-Dichlorobenzyl 5-(5-(methylsulfonamido)picolinoyl)hexahydropyrrolo[3,4-c]pyrrole-2(1H)-carboxylate], the IC50 turned out to be 622 nM. `CS(=O)(=O)c1cc(Cl)cc(COC(=O)N2C[C@@H]3CN(C(=O)c4ccc(S(N)(=O)=O)cc4)C[C@H]3C2)c1` [Example 7, (3aS,6aS)-5-(4-Sulfamoyl-benzoyl)-hexahydro-pyrrolo[3,4-c]pyrrole-2-carboxylic acid 3-chloro-5-methanesulfonyl-benzyl ester] gave an IC50 of 14.5 nM.

The compound `NS(=O)(=O)c1ccc(C(=O)N2C[C@H]3CN(C(=O)OCc4ccc(OC(F)(F)F)cc4F)C[C@H]3C2)cc1` [Example 7.01, (3aR,6aS)-5-(4-sulfamoyl-benzoyl)-hexahydro-pyrrolo[3,4-c]pyrrole-2-carboxylic acid 2-fluoro-4-trifluoromethoxy-benzyl ester] returned a 50% inhibitory concentration (IC50) of 1 nM. The figure for `NS(=O)(=O)c1ccc(C(=O)N2C[C@H]3CN(C(=O)OCc4ccc(OC(F)(F)F)cc4)C[C@H]3C2)cc1` [Example 7.02, (3aR,6aS)-5-(4-sulfamoyl-benzoyl)-hexahydro-pyrrolo[3,4-c]pyrrole-2-carboxylic acid 4-trifluoromethoxy-benzyl ester] is 3 nM; for `NS(=O)(=O)c1ccc(C(=O)N2C[C@H]3CN(C(=O)OCc4ccc(OC(F)(F)F)cc4)C[C@@H]3C2)cc1` [Example 7.03, (3aS,6aS)-5-(4-sulfamoyl-benzoyl)-hexahydro-pyrrolo[3,4-c]pyrrole-2-carboxylic acid 4-trifluoromethoxy-benzyl ester] it is 4 nM. On to `NS(=O)(=O)c1ccc(C(=O)N2C[C@H]3CN(C(=O)CCc4ccc(OC(F)(F)F)cc4)C[C@@H]3C2)cc1` [Example 8, 4-{(3aR,6aR)-5-[3-(4-Trifluoromethoxy-phenyl)-propionyl]-hexahydro-pyrrolo[3,4-c]pyrrole-2-carbonyl}-benzenesulfonamide], for which inhibition was half-maximal at 8.5 nM (IC50). As for `NS(=O)(=O)c1ccc(C(=O)N2C[C@H]3CN(C(=O)/C=C/c4ccc(OC(F)(F)F)cc4)C[C@@H]3C2)cc1` [Example 8.01, 4-{(3aR,6aR)-5-[(E)-3-(4-trifluoromethoxy-phenyl)-acryloyl]-hexahydro-pyrrolo[3,4-c]pyrrole-2-carbonyl}-benzenesulfonamide], the figure is 7.5 nM; as for `CC(C)Oc1cc(C(=O)N2C[C@H]3CN(C(=O)c4ccc(S(N)(=O)=O)cc4)C[C@H]3C2)cc2ccccc12` [Example 8.02, 4-[(3aR,6aS)-5-(4-isopropoxy-naphthalene-2-carbonyl)-hexahydro-pyrrolo[3,4-c]pyrrole-2-carbonyl]-benzenesulfonamide], 14 nM; as for `NS(=O)(=O)c1ccc(C(=O)N2C[C@@H]3CN(C(=O)c4cc5ccccc5c(OCC(F)(F)F)n4)C[C@@H]3C2)cc1` [Example 8.03, 4-{(3aR,6aS)-5-[1-(2,2,2-trifluoro-ethoxy)-isoquinoline-3-carbonyl]-hexahydro-pyrrolo[3,4-c]pyrrole-2-carbonyl}-benzenesulfonamide], 5.5 nM. The compound `Cn1c(C(=O)N2C[C@H]3CN(C(=O)c4ccc(S(N)(=O)=O)cc4)C[C@H]3C2)cc2cc(OC(F)(F)F)ccc21` [Example 8.04, 4-[(3aR,6aS)-5-(1-Methyl-5-trifluoromethoxy-1H-indole-2-carbonyl)-hexahydro-pyrrolo[3,4-c]pyrrole-2-carbonyl]-benzenesulfonamide] had an IC50 of 166 nM. As for `CC(C)Oc1cc(C(=O)N2C[C@H]3CN(C(=O)c4ccc(S(N)(=O)=O)cc4)C[C@H]3C2)nc2ccccc12` [Example 8.05, 4-[(3aR,6aS)-5-(4-Isopropoxy-quinoline-2-carbonyl)-hexahydro-pyrrolo[3,4-c]pyrrole-2-carbonyl]-benzenesulfonamide], the figure is 93 nM.
